Laboratory results as given in PubChem BioAssay AID192 (DTP/NCI, 2004).
Several values for one entry are separate records, joined by “and”; a condition that tells them apart may be missing. Equal values may be shown once. Inconclusive results and toxic doses are left out. How the source made its calls: active means survival T/C of 150% or more; inactive means T/C below 125% in these data.

System: BDF1 mice, B16 melanoma ip, median survival T/C
Experiment: NCI In Vivo Anticancer Drug Screen. Data for tumor model B16 Melanoma (intraperitoneal) in B6D2F1 (BDF1) mice
Settings: endpoint: median survival time, higher = longer survival
Procedure, shortened: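 Read-out: survival or tumor size, given as treated/control ratio. Controls received vehicle only; animals bore transplantable tumors.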

[1] = dose: 100.0 mg/kg/injection, schedule: Q01DX009 (ip), vehicle: saline with Tween-80
[2] = dose: 200.0 mg/kg/injection, schedule: Q01DX009 (ip), vehicle: saline with Tween-80
[3] = dose: 400.0 mg/kg/injection, schedule: Q01DX009 (ip), vehicle: saline with Tween-80
[4] = dose: 50.0 mg/kg/injection, schedule: Q01DX009 (ip), vehicle: Klucel (hydroxypropylcellulose) (HPC)
[5] = dose: 100.0 mg/kg/injection, schedule: Q01DX009 (ip), vehicle: Klucel (hydroxypropylcellulose) (HPC)
[6] = dose: 200.0 mg/kg/injection, schedule: Q01DX009 (ip), vehicle: Klucel (hydroxypropylcellulose) (HPC)
[7] = dose: 0.5 mg/kg/injection, schedule: Q01DX009 (ip), vehicle: saline
[8] = dose: 1.0 mg/kg/injection, schedule: Q01DX009 (ip), vehicle: saline
[9] = dose: 2.0 mg/kg/injection, schedule: Q01DX009 (ip), vehicle: saline
[10] = dose: 6.25 mg/kg/injection, schedule: Q01DX009 (ip), vehicle: Klucel (hydroxypropylcellulose) (HPC)
[11] = dose: 12.5 mg/kg/injection, schedule: Q01DX009 (ip), vehicle: Klucel (hydroxypropylcellulose) (HPC)
[12] = dose: 25.0 mg/kg/injection, schedule: Q01DX009 (ip), vehicle: Klucel (hydroxypropylcellulose) (HPC)
[13] = dose: 6.25 mg/kg/injection, schedule: Q01DX009 (ip), vehicle: saline
[14] = dose: 12.5 mg/kg/injection, schedule: Q01DX009 (ip), vehicle: saline
[15] = dose: 25.0 mg/kg/injection, schedule: Q01DX009 (ip), vehicle: saline
[16] = dose: 50.0 mg/kg/injection, schedule: Q01DX009 (ip), vehicle: saline
[17] = dose: 3.12 mg/kg/injection, schedule: Q01DX009 (ip), vehicle: saline

Measured: T/C

CC(N)C(=O)NC(CO)C(=O)O (centres undefined)
inactive: [1] 109 % of control | [2] 97 % of control | [3] 97 % of control

CCOc1cc(N)ccc1C
inactive: [4] 93 % of control | [5] 93 % of control | [6] 95 % of control

COc1cccc2c1C(=O)c1c(O)c3c(c(O)c1C2=O)CC(O)(C(C)=O)CC3O (centres undefined)
inactive: dose: 0.12 mg/kg/injection, schedule: Q01DX009 (ip), vehicle: saline 91 % of control | dose: 0.12 mg/kg/injection, schedule: Q04DX003 (ip), vehicle: saline 94 % of control | dose: 0.25 mg/kg/injection, schedule: Q04DX003 (ip), vehicle: saline 100 % of control | [7] 86 % of control | dose: 0.5 mg/kg/injection, schedule: Q04DX003 (ip), vehicle: saline 105 % of control | [8] 94 % of control | dose: 1.0 mg/kg/injection, schedule: Q04DX003 (ip), vehicle: saline 97 % of control | [9] 102 % of control | dose: 2.0 mg/kg/injection, schedule: Q04DX003 (ip), vehicle: saline 102 % of control | dose: 4.0 mg/kg/injection, schedule: Q01DX009 (ip), vehicle: saline 100 % of control | dose: 4.0 mg/kg/injection, schedule: Q04DX003 (ip), vehicle: saline 108 % of control | dose: 8.0 mg/kg/injection, schedule: Q01DX009 (ip), vehicle: saline 105 % of control

CN(C)c1ccc(-c2cc[n+](C)cc2)cc1
inactive: [7] 109 % of control | [8] 103 % of control | [9] 101 % of control | dose: 3.0 mg/kg/injection, schedule: Q01DX009 (ip), vehicle: saline 104 % of control | dose: 6.0 mg/kg/injection, schedule: Q01DX009 (ip), vehicle: saline 92 % of control

CCNC(C)(C)C(SSSC(c1ccc(Cl)cc1)C(C)(C)NCC)c1ccc(Cl)cc1 (centres undefined)
inactive: [10] 108 % of control | [11] 94 % of control | [12] 89 % of control and 94 % of control

O=C(Nc1ccccc1Cl)OCC(Cl)(Cl)Cl
inactive: dose: 75.0 mg/kg/injection, schedule: Q04DX003 (ip), vehicle: Klucel (hydroxypropylcellulose) (HPC) 96 % of control | dose: 150.0 mg/kg/injection, schedule: Q04DX003 (ip), vehicle: Klucel (hydroxypropylcellulose) (HPC) 91 % of control | dose: 300.0 mg/kg/injection, schedule: Q04DX003 (ip), vehicle: Klucel (hydroxypropylcellulose) (HPC) 102 % of control

O=C(Nc1cc(C(F)(F)F)ccc1Cl)c1cccc(C(=O)Nc2cc(C(F)(F)F)ccc2Cl)c1
inactive: [11] 101 % of control | [12] 101 % of control | [4] 101 % of control

CC(=O)N(C(C)=O)c1ccc(N=Nc2ccccc2C)cc1C
inactive: [11] 94 % of control | [12] 117 % of control | [4] 100 % of control | [5] 100 % of control | [6] 87 % of control

O=C(NCCCN1CCN(CCCNC(=O)c2cccnc2)CC1)c1cccnc1
inactive: [13] 107 % of control | [14] 107 % of control | [15] 112 % of control | [16] 104 % of control | dose: 100.0 mg/kg/injection, schedule: Q01DX009 (ip), vehicle: saline 95 % of control

N#Cc1ccc(NC(=O)Nc2nccs2)cc1
inactive: dose: 12.5 mg/kg/injection, schedule: Q01DX009 (ip), vehicle: distilled water + Tween-80 115 % of control

Cc1ccc(NC(=S)N(C)C)cc1C
inactive: [5] 100 % of control | [6] 100 % of control | dose: 400.0 mg/kg/injection, schedule: Q01DX009 (ip), vehicle: Klucel (hydroxypropylcellulose) (HPC) 92 % of control

COc1ccc2c(=O)c(C)c(C)oc2c1CN1CCOCC1
inactive: dose: 0.39 mg/kg/injection, schedule: Q01DX009 (ip), vehicle: saline 104 % of control | dose: 0.78 mg/kg/injection, schedule: Q01DX009 (ip), vehicle: saline 114 % of control | dose: 1.56 mg/kg/injection, schedule: Q01DX009 (ip), vehicle: saline 108 % of control | [17] 98 % of control | [13] 115 % of control

COc1ccc(Cl)[n+]([O-])n1
inactive: dose: 3.13 mg/kg/injection, schedule: Q01DX009 (ip), vehicle: Klucel (hydroxypropylcellulose) (HPC) 92 % of control | [10] 95 % of control | [11] 98 % of control | [12] 96 % of control | [4] 98 % of control | [5] 91 % of control

COC(=O)c1ccc(C(=O)OC)[n+]([O-])c1
inactive: dose: 100.0 mg/kg/injection, schedule: Q04DX003 (ip), vehicle: saline 105 % of control | dose: 200.0 mg/kg/injection, schedule: Q04DX003 (ip), vehicle: saline 112 % of control | dose: 400.0 mg/kg/injection, schedule: Q04DX003 (ip), vehicle: saline 105 % of control

O=C(CN1CC1)NCCCCCCCCNC(=O)CN1CC1
inactive: [10] 124 % of control | [12] 93 % of control

CCc1cc(C)cc(OC(=O)Nc2ccc(Cl)c(Cl)c2)c1
inactive: [1] 101 % of control | [2] 92 % of control | [3] 87 % of control

COc1cc(/C=N/NC(=O)N/N=C/c2cc(OC)c(OC)c(OC)c2)cc(OC)c1OC
inactive: [5] 93 % of control | [6] 90 % of control

CC1=C(/C=C/C(C)=C/C=C/C(C)=C/C=O)C(C)(C)CCC1
inactive: dose: 16.0 mg/kg/injection, schedule: Q01DX005 (ip), vehicle: DMSO 94 % of control | dose: 32.0 mg/kg/injection, schedule: Q01DX005 (ip), vehicle: DMSO 88 % of control | dose: 64.0 mg/kg/injection, schedule: Q01DX005 (ip), vehicle: DMSO 89 % of control

COc1ccc2[nH]c3c(C)c4cc[n+](C)c(C)c4cc3c2c1
inactive: dose: 10.0 mg/kg/injection, schedule: Q04DX003 (ip), vehicle: water 113 % of control | dose: 20.0 mg/kg/injection, schedule: Q04DX003 (ip), vehicle: water 98 % of control | dose: 40.0 mg/kg/injection, schedule: Q04DX003 (ip), vehicle: water 105 % of control | dose: 80.0 mg/kg/injection, schedule: Q04DX003 (ip), vehicle: water 117 % of control

COc1ccc(/C=C/c2ccc3ccccc3[n+]2C)c(OC)c1OC
inactive: dose: 2.5 mg/kg/injection, schedule: Q01DX009 (ip), vehicle: saline 104 % of control | dose: 5.0 mg/kg/injection, schedule: Q01DX009 (ip), vehicle: saline 113 % of control

COc1cc(CN(C)C2CCCCC2)cc(OC)c1OC
inactive: [17] 105 % of control | [13] 102 % of control | [14] 95 % of control | [15] 91 % of control | [16] 101 % of control

CCCS(=O)[O-].CCCS(=O)[O-].[Zn+2]
inactive: dose: 0.05 mg/kg/injection, schedule: Q01DX009 (ip), vehicle: saline 106 % of control | dose: 0.1 mg/kg/injection, schedule: Q01DX009 (ip), vehicle: saline 91 % of control | dose: 0.2 mg/kg/injection, schedule: Q01DX009 (ip), vehicle: saline 103 % of control | dose: 0.4 mg/kg/injection, schedule: Q01DX009 (ip), vehicle: saline 101 % of control | dose: 0.8 mg/kg/injection, schedule: Q01DX009 (ip), vehicle: saline 96 % of control | dose: 1.6 mg/kg/injection, schedule: Q01DX009 (ip), vehicle: saline 100 % of control | dose: 3.2 mg/kg/injection, schedule: Q01DX009 (ip), vehicle: saline 95 % of control | dose: 6.4 mg/kg/injection, schedule: Q01DX009 (ip), vehicle: saline 103 % of control | dose: 12.8 mg/kg/injection, schedule: Q01DX009 (ip), vehicle: saline 101 % of control

COc1ccc2c(c1)C/C(=N\O)C2=O
inactive: dose: 25.0 mg/kg/injection, schedule: Q01DX009 (ip), vehicle: saline with Tween-80 99 % of control | dose: 50.0 mg/kg/injection, schedule: Q01DX009 (ip), vehicle: saline with Tween-80 114 % of control | [1] 92 % of control

CN(C)CCCCNc1ccc(NCCCCN(C)C)c2c1C(=O)c1c(O)ccc(O)c1C2=O
inactive: [13] 95 % of control | [14] 93 % of control | [15] 90 % of control and 110 % of control

CCOC(=O)C1CCCN(S(=O)(=O)c2ccc(C)cc2)c2ccccc2C1=O (centres undefined)
inactive: dose: 100.0 mg/kg/injection, schedule: Q04DX003 (ip), vehicle: Klucel (hydroxypropylcellulose) (HPC) 96 % of control | dose: 200.0 mg/kg/injection, schedule: Q04DX003 (ip), vehicle: Klucel (hydroxypropylcellulose) (HPC) 88 % of control | dose: 400.0 mg/kg/injection, schedule: Q04DX003 (ip), vehicle: Klucel (hydroxypropylcellulose) (HPC) 95 % of control
